Key:
physchem [1] = details: buffer, pH 6.5
physchem [2] = details: buffer
in vitro [3] = details: male, Wistar Han, rat, tissue homogenate, pH 6.8
[4] = Han Wistar, rat, pH 6.8
in vitro [5] = details: rat, pH 7.2, rat blood T1/2 (h) pH 7.2
[6] = pH 6.5
[7] = rat, in vivo

CC(OC(=O)CCCCN)OC(=O)N1CCC(OC(=O)C(O)(c2ccccc2)c2ccccc2)CC1.Cl (stereo not drawn) [Compound 6, 1-((5-Aminopentanoyl)oxy)ethyl-4-(2-hydroxy-2,2-diphenylacetoxy)piperidine-1-carboxylate Hydrochloride]
half-life (physchem [1]): < 0.01 h

CC(OC(=O)[C@@H]1CCCN1)OC(=O)N1CCC(OC(=O)C(O)(c2ccccc2)c2ccccc2)CC1.Cl (stereo partly drawn) [Compound 9, 1-((L-Prolyl)oxy)ethyl-4-(2-hydroxy-2,2-diphenylacetoxy)piperidine-1-carboxylate Hydrochloride]
half-life (physchem [1]): 0.14 h

CC(C)C[C@H](N)C(=O)OC(C)OC(=O)N1CCC(OC(=O)C(O)(c2ccccc2)c2ccccc2)CC1.Cl (stereo partly drawn) [Compound 13, 1-((L-Leucyl)oxy)ethyl-4-(2-hydroxy-2,2-diphenylacetoxy)piperidine-1-carboxylate Hydrochloride]
half-life (physchem [1]): 5.09 h

CC(OC(=O)[C@@H](N)C(C)C)OC(=O)N1CCC(OC(=O)C(O)(c2ccccc2)c2ccccc2)CC1.Cl (stereo partly drawn) [Compound 14, 1-((L-Valyl)oxy)ethyl-4-(2-hydroxy-2,2-diphenylacetoxy)piperidine-1-carboxylate Hydrochloride]
half-life (physchem [1]): 15.8 h

CC(OC(=O)[C@@H](N)C(C)(C)C)OC(=O)N1CCC(OC(=O)C(O)(c2ccccc2)c2ccccc2)CC1.Cl (stereo partly drawn) [Compound 15, 1-(((S)-2-Amino-3,3-dimethylbutanoyl)oxy)ethyl-4-(2-hydroxy-2,2-diphenylacetoxy)piperidine-1-carboxylate Hydrochloride]
half-life (physchem [1]): 12.2 h

CC[C@H](C)[C@H](N)C(=O)OC(C)OC(=O)N1CCC(OC(=O)C(O)(c2ccccc2)c2ccccc2)CC1.Cl (stereo partly drawn) [Compound 16, 1-((L-Isoleucyl)oxy)ethyl-4-(2-hydroxy-2,2-diphenylacetoxy)piperidine-1-carboxylate Hydrochloride]
half-life (physchem [1]): 13.9 h

CC(OC(=O)[C@@H](N)CCCCN)OC(=O)N1CCC(OC(=O)C(O)(c2ccccc2)c2ccccc2)CC1.Cl.Cl (stereo partly drawn) [Compound 17, 1-((L-Lysyl)oxy)ethyl-4-(2-hydroxy-2,2-diphenylacetoxy)piperidine-1-carboxylate Dihydrochloride]
half-life (physchem [2]; pH 6.5): 3.9 ± 0.05 h
half-life (physchem [2]; pH 7.4): 1.1 ± 0.02 h

CC(OC(=O)[C@@H](NC(=O)[C@@H](N)CCCCN)C(C)(C)C)OC(=O)N1CCC(OC(=O)C(O)(c2ccccc2)c2ccccc2)CC1.Cl.Cl (stereo partly drawn) [Compound 22, 1-(((S)-2-((S)-2,6-Diaminohexanamido)-3,3-dimethylbutanoyl)oxy)ethyl-4-(2-hydroxy-2,2-diphenylacetoxy)piperidine-1-carboxylate Dihydrochloride]
half-life (in vitro [3]): 2.5 ± 0.07 h
rat blood T1/2 (h) pH 7.2: 0.1 ± 0.01 h
formation of monobasic intermediate (peptide amide bond hydrolysis) [4]: clearly showing the intermediate 15
half-life (in vitro [5]): 0.2 h
half-life (physchem [2]; pH 6.5): 186 ± 0.79 h
half-life (physchem [2]; pH 7.4): 67 ± 0.23 h

CC(OC(=O)[C@H](NC(=O)[C@@H](N)CCCCN)C(C)(C)C)OC(=O)N1CCC(OC(=O)C(O)(c2ccccc2)c2ccccc2)CC1.Cl.Cl (stereo partly drawn) [Compound 23, 1-(((R)-2-((S)-2,6-Diaminohexanamido)-3,3-dimethylbutanoyl)oxy)ethyl-4-(2-hydroxy-2,2-diphenylacetoxy)piperidine-1-carboxylate Dihydrochloride]
half-life (in vitro [3]): 25.4 ± 1.94 h
appearance in dosing formulation [6]: clear solution
formation of monobasic intermediate (peptide amide bond hydrolysis) [4]: no evidence of intermediate 18
half-life (in vitro [5]): 7 ± 0.82 h
23 in lung as % of the total dose delivered (calculated mass balance) ([7]; male, Sprague Dawley): 54%
ratio of 23 to 1 in lung ([7]; male, Sprague Dawley): ~27:1
total lung concentration of 23 ([7]; male, Sprague Dawley, 0.2 mg/kg): 31.2 µM
plasma concentration of 23 in words ([7]; 0.2 mg/kg): only a very low concentration
half-life (physchem [2]; pH 6.5): 58.6 ± 4.91 h
half-life (physchem [2]; pH 7.4): 36.6 ± 1.7 h

CC(OC(=O)[C@@H](NC(=O)[C@@H](N)CCCCN)C(C)C)OC(=O)N1CCC(OC(=O)C(O)(c2ccccc2)c2ccccc2)CC1.Cl.Cl (stereo partly drawn) [Compound 25, 1-((L-Lysyl-L-valyl)oxy)ethyl-4-(2-hydroxy-2,2-diphenylacetoxy)piperidine-1-carboxylate Dihydrochloride]
half-life (in vitro [3]): 0.6 ± 0.09 h
half-life (physchem [2]; pH 6.5): 14.4 ± 1.68 h
half-life (physchem [2]; pH 7.4): 4.4 ± 0.39 h

CC(OC(=O)[C@H](NC(=O)[C@@H](N)CCCCN)C(C)C)OC(=O)N1CCC(OC(=O)C(O)(c2ccccc2)c2ccccc2)CC1.Cl.Cl (stereo partly drawn) [Compound 26, 1-((L-Lysyl-D-valyl)oxy)ethyl-4-(2-hydroxy-2,2-diphenylacetoxy)piperidine-1-carboxylate Dihydrochloride]
half-life (in vitro [3]): 3.4 ± 0.08 h
half-life (in vitro [5]): 0.6 ± 0.07 h
half-life (physchem [2]; pH 6.5): 8.7 ± 1.06 h
half-life (physchem [2]; pH 7.4): 1.8 ± 0.2 h

CC[C@H](C)[C@H](N)C(=O)N[C@@H](CCCCN)C(=O)OC(C)OC(=O)N1CCC(OC(=O)C(O)(c2ccccc2)c2ccccc2)CC1.Cl.Cl (stereo partly drawn) [Compound 27, 1-((L-Isoleucyl-L-lysyl)oxy)ethyl-4-(2-hydroxy-2,2-diphenylacetoxy)piperidine-1-carboxylate Dihydrochloride]
half-life (physchem [2]; pH 6.5): 4.9 ± 0.06 h
half-life (physchem [2]; pH 7.4): 0.9 ± 0.04 h

CC(OC(=O)[C@H](CCCCN)NC(=O)CCN)OC(=O)N1CCC(OC(=O)C(O)(c2ccccc2)c2ccccc2)CC1.Cl.Cl (stereo partly drawn) [Compound 28, 1-(((3-Aminopropanoyl)-L-lysyl)oxy)ethyl-4-(2-hydroxy-2,2-diphenylacetoxy)piperidine-1-carboxylate Dihydrochloride]
half-life (in vitro [3]): 0.7 ± 0.21 h
half-life (physchem [2]; pH 6.5): 102 ± 3.86 h
half-life (physchem [2]; pH 7.4): 11.5 ± 0.73 h

Source: article PMC9340777 (Journal of Medicinal Chemistry, 2022)
